Assay: RP, Waters ACQUITY UPLC BEH C18, 100 × 1 mm, 1.7 µm, 50 °C, 0.3 mL/min, estimated dead time 0.17 min; A: water + 0.1% formic acid + 20 mM ammonium formate; B: methanol + 0.1% formic acid + 20 mM ammonium formate; gradient (min/%B) 0/0 15/100 21/100 22/0 30/0
Conditions: stereoisomer not certain

SMILES	LC retention time [min]
CC1=C(C(=O)Nc2ccccc2)SCCO1 [Carboxin]	11.9
CCOCCOC(=O)c1ccccc1C(=O)OCCOCC [Bis(2-ethoxyethyl)phthalate]	13.3
CC(=O)N1N=C(c2ccc(N)cc2)c2cc3c(cc2CC1C)OCO3 (stereo not drawn) [Talampanel]	11.5
CCCSP(=O)(OCC)SCCC [Ethoprophos]	15
Cc1ccc(N)cc1O [5-Amino-o-cresol]	3.69
CCN(CCO)c1cccc(C)c1 [2-(N-Ethyl-N-m-toluidino)ethanol]	6.13
Cc1cc(C2CCCCC2)n(O)c(=O)c1 [Ciclopirox]	14.9
O=C(O)CC1(C(=O)O)CCCCC1 [Gabapentin Related Compound E]	9.9
CCSCCSP(=O)(OC)OC [Demeton-S-methyl]	11.8
C[N+](C)(C)C [Tetramethylammonium cation]	2
O=C(O)c1cccnc1Oc1cccc(C(F)(F)F)c1 [Diflufenican-metabolite]	13.2
CC1OC(OCC2OC(Oc3c(-c4ccc(O)c(O)c4)oc4cc(O)cc(O)c4c3=O)C(O)C(O)C2O)C(O)C(O)C1O (stereo not drawn) [Rutin]	9.75
CCc1cccc(C)c1NC(=O)CCl [Metolachlor-N-dealkylation]	13.7
O=[P+](c1ccccc1)c1ccccc1 [Diphenylphosphine oxide]	11.8
CC(C)OC(=O)Nc1cccc(Cl)c1 [Chlorpropham]	14.4
C=C1C(O)C2(O)OCC34C(CC5C(C)=CC(=O)C(O)C5(C)C23)OC(=O)CC14 (stereo not drawn) [Ailanthone]	7.89
O=C(O)c1cc(=O)c2ccccc2[nH]1 [Kynurenic acid]	6.9
Cc1cc([N+](=O)[O-])c(N)c([N+](=O)[O-])c1C [Pendimethalin-N-dealkylation]	14.6
CCCC(C)(C)C(=O)Nc1ccc(Cl)cc1 [Monalide]	15

SMILES	LC retention time [min]
CCCCCCCCn1sc(Cl)c(Cl)c1=O [DCOIT]	17
CCOP(=S)(NC(C)C)Oc1ccccc1C(=O)OC(C)C (stereo not drawn) [Isofenphos (-ethyl)]	16
O=P1(N(CCCl)CCCl)NCCCO1 (stereo not drawn) [Cyclophosphamide]	10.7
O=P(OCC(Cl)CCl)(OCC(Cl)CCl)OCC(Cl)CCl (stereo not drawn) [Tris(2,3-dichloropropyl) phosphate]	15.6
N[C@@H](Cc1ccc(O)cc1)C(=O)O [L-Tyrosine]	6.5
Nc1nc2c(ncn2CCC(CO)CO)c(=O)[nH]1 [Penciclovir]	3.58
O=c1ccc(=O)[nH][nH]1 [Maleic acid hydazide]	16.4
CC(C)(C)NCC(O)c1ccc(O)c(CO)c1 (stereo not drawn) [Albuterol]	6
COP(=O)(OC)OC [Trimethyl phosphate]	6.17
COc1cc(OC)nc(NC(=O)NS(=O)(=O)c2ncccc2C(F)(F)F)n1 [Flazasulfuron]	13.4
NC(Cc1c[nH]c2ccccc12)C(=O)O (stereo not drawn) [tryptophan]	6.3
CC(C)Nc1nc(Cl)nc(NC(C)C)n1 [Propazin]	14
CC(C)=CCc1c(O)cc(O)c2c1OC(c1ccc(O)cc1)CC2=O (stereo not drawn) [8-Prenylnaringenin]	14.5
Cc1cc(C(C)(C)C)c(O)c(C(C)(C)C)c1 [Dibutylhydroxytoluene]	17
O=C(O)/C=C/c1cccc(O)c1 [trans-3-Hydroxycinnamic acid]	7.5
COc1cc(OC)n2nc(NS(=O)(=O)c3c(C(F)(F)F)ccnc3OC)nc2n1 [Pyroxsulam]	11.7
CCCCCCCCc1ccc(O)cc1 [4-n-Octylphenol]	16.9
CC(=O)c1ccc(N)cc1 [4-aminoacetophenone]	2.5
CC(C)c1ccc(N)cc1 [4-Isopropylaniline]	9.8
